Reference: article PMC6570762, “Identification of a binding protein for sesamin and characterization of its roles in plant growth” (Scientific Reports, 2019)

Biological target: T1, Steroleosin B (GST-fused Steroleosin B) (Sesamum indicum, UniProt Q8LKV5)
T1 construct: gene SOP3
T1 sequence (Q8LKV5 1-362): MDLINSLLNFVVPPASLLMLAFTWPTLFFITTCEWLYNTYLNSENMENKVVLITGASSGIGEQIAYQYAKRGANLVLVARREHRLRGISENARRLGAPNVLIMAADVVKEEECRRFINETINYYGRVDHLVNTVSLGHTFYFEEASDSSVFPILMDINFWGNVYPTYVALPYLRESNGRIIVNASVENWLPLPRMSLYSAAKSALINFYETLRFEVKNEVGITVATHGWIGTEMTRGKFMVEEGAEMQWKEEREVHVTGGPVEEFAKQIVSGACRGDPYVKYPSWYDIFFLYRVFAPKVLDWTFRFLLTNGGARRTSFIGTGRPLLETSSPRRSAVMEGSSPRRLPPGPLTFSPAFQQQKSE
Assay: STD-NMR ([…] MHz)
Format: binding
Conditions: 60 μM sesamin, 0.5 μM GST-Steroleosin B, stated ligand:protein ratio 60:1; PBS in D2O, 5% DMSO-d6, 298 K; GST alone as control

c1cc2c(cc1[C@H]1OC[C@H]3[C@@H]1CO[C@@H]3c1ccc3c(c1)OCO3)OCO2 [sesamin]
STD-NMR (800 MHz): these results demonstrate the direct interaction between sesamin and Steroleosin B
